In PMC3676778, “The Effect of the Aerial Part of Lindera akoensis on Lipopolysaccharides (LPS)-Induced Nitric Oxide Production in RAW264.7 Cells” (International Journal of Molecular Sciences, 2013):

Tests used:
Type in all cases: cell-based, murine
[1] = Cell viability (MTT) of RAW264.7 cells in the presence of LPS; conditions: mouse, RAW264.7 macrophage cells, RAW 264.7 cells, 100 ng/mL LPS, mean ± SD of three replicates, read-out: Cytotoxicity IC50
Experimental: (§1) A murine macrophage cell line RAW264.7 (BCRC No. 60001) was purchased from the Bioresources Collection and Research Center (BCRC) of the Food Industry Research and Development Institute (Hsinchu, Taiwan). Cells were cultured in plastic dishes containing Dulbecco’s Modified Eagle Medium (DMEM, Sigma, St. Louis, MO, USA) supplemented with 10% fetal bovine serum (FBS, Sigma, St. Louis, MO, USA, USA) in a CO2 incubator (5% CO2 in air) at 37 °C and subcultured every 3 days at a dilution of 1:5 using 0.05% trypsin-0.02% EDTA in Ca^2+-, Mg^2+-free phosphate-buffered saline (DPBS).
(§2) Cells (2 × 105) were cultured in 96-well plate containing DMEM supplemented with 10% FBS for 1 day to become nearly confluent. Then cells were cultured with compounds 1–5 in the presence of 100 ng/mL LPS (lipopolysaccharide) for 24 h. After that, the cells were washed twice with DPBS and incubated with 100 μL of 0.5 mg/mL MTT for 2 h at 37 °C testing for cell viability. The medium was then discarded, and 100 μL dimethyl sulfoxide (DMSO) was added. After 30-min incubation, the absorbance at 570 nm was read using a microplate reader (Molecular Devices, Sunnyvale, CA, USA).
(§3) IC50 values were estimated using a non-linear regression algorithm (SigmaPlot 8.0; SPSS Inc., Chicago, IL, USA, 2002). Statistical evaluation was carried out by one-way analysis of variance (ANOVA followed by Scheffe’s multiple range tests).

[2] = system: LPS-stimulated production of nitric oxide (NO) in RAW 264.7 cell; test: Inhibition of LPS-induced NO (nitrite) production in RAW264.7 cells, Griess reaction; conditions: RAW 264.7 cells, LPS 100 ng/mL, 24 h, nitrite by Griess, mean ± SD of three replicates
From the text: NO, produced from L-arginine by NO synthase, has various biological actions, e.g., as a defense and regulatory molecule for homeostatic equilibrium. However, in pathophysiologic conditions, such as inflammation, there is an increased production of NO by inducible NO synthase (iNOS). Macrophages have been expected to be an origin of inflammation, because they contain various chemical mediators that may be responsible for several inflammatory stages. The inhibitory activity toward NO production, induced by lipopolysaccharides (LPS), by murine macrophage-derived RAW264.7 cells, was assayed.
as §1
NO production was indirectly assessed by measuring the nitrite levels in the cultured media and serum determined by a colorimetric method based on the Griess reaction. The cells were incubated with butanolides (0, 3.125, 6.25, 12.5, 25 and 50 μg/mL) in the presence of LPS (100 ng/mL) at 37 °C for 24 h. Then, cells were dispensed into 96-well plates, and 100 μL of each supernatant was mixed with the same volume of Griess reagent (1% sulfanilamide, 0.1% naphthyl ethylenediamine dihydrochloride and 5% phosphoric acid) and incubated at room temperature for 10 min; the absorbance was measured at 540 nm with a Micro-Reader (Molecular Devices Orleans Drive, Sunnyvale, CA, USA). Serum samples were diluted four times with distilled water and deproteinized by adding 1/20 volume of zinc sulfate (300 g/L) to a final concentration of 15 g/L. After centrifugation at 10,000× g for 5 min at room temperature, 100 μL supernatant was applied to a microtiter plate well, followed by 100 μL of Griess reagent. After 10 min of color development at room temperature, the absorbance was measured at 540 nm with a Micro-Reader. By using sodium nitrite to generate a standard curve, the concentration of nitrite was measured form absorbance at 540 nm.
as §3

RAW264.7 cells = test: Cell viability (MTT) of RAW264.7 cells in the presence of LPS; conditions: RAW 264.7 cells, 100 ng/mL LPS, 24 h, mean ± SD of three replicates, read-out: Cytotoxicity IC50
Experimental: as §1, §2, §3

| IC50 ([2]; Mus musculus, RAW264.7) [µM] | Compound | IC50 at 24 h [1] [µM] | IC50 (RAW264.7 cells) [µM] | IC50 [2] [µM] |
| --- | --- | --- | --- | --- |
| 4.5 ± 0.1 | CCCCCCCCCCC/C=C1/C(=O)O[C@@H](C)[C@H]1O [Compound 3, 3-epilistenolide D2] | 27.7 ± 1.6 | – | – |
| 33.4 ± 1 | C#CCCCCCCCCC/C=C1/C(=O)O[C@@H](C)[C@H]1O [Compound 5, (3E,4β,5β)-3-(dodec-11-ynylidene)-4-hydroxy-5-methylbutanolide] | 143 ± 1.9 | – | – |
| – | (+)-pinoresinol [Compound 9] | – | > 279 | 90.4 ± 8.6 |
| 4.1 ± 0.1 | CCCCCCCCCCC/C=C1\C(=O)O[C@@H](C)[C@H]1O [Compound 2, 3-epilistenolide D1] | 32.6 ± 0.5 | – | – |
| 414 ± 6.9 | Oc1cc(O)c2c(c1)O[C@H](c1ccc(O)c(O)c1)[C@@H](O)C2 [Compound 14, catechin] | > 517 | – | – |
| 62.5 ± 2.2 | COc1ccc(-c2oc3cc(O)cc(O)c3c(=O)c2OC2OC(C)C(OC(=O)C=Cc3ccc(O)cc3)C(O)C2O)cc1 [Compound 11, 4′-O-methylkaempferol 3-O-α-L-(4″-E-p-coumaroyl)rhamnoside] | > 84.5 | – | – |
| 183 ± 5.5 | COc1ccc2c(c1)c(CC(=O)O)c(C)n2C(=O)c1ccc(Cl)cc1 [indomethacin, reference compound] | – | – | – |
| 196 ± 4 | COc1cc(CC2COCC2Cc2ccc3c(c2)OCO3)ccc1O (stereo not shown) [Compound 6, linderinol] | > 292 | – | – |
| 312 ± 14.1 | COc1cc(C2OCC3C(=O)OCC32)ccc1O (stereo not shown) [Compound 10, salicifoliol] | > 400 | – | – |
| 352 ± 37.4 | Oc1cc(O)c2c(c1)O[C@H](c1ccc(O)c(O)c1)[C@H](O)C2 [Compound 15, epicatechin] | > 517 | – | – |
| 20.1 ± 0.3 | CCCCCCCCCC/C=C/[C@@H]1C(=O)O[C@@H](C)[C@H]1O [Compound 1, 3α-((E)-Dodec-1-enyl)-4β-hydroxy-5β-methyldihydrofuran-2-one] | 78 ± 5.1 | – | – |
| 49.7 ± 4.5 | COc1cc([C@H]2OC[C@H]3[C@@H]2CO[C@@H]3c2cc(OC)c(O)c(OC)c2)cc(OC)c1O [Compound 8, syringaresinol] | > 239 | – | – |
| 179 ± 12.1 | COc1cc(C[C@H]2COC(=O)[C@@H]2Cc2ccc(O)c(OC)c2)ccc1O [Compound 7, matairesinol] | > 279 | – | – |
| 21.7 ± 0.4 | C#CCCCCCCCCC/C=C1\C(=O)O[C@@H](C)[C@@H]1O [Compound 4, (3Z,4α,5β)-3-(dodec-11-ynylidene)-4-hydroxy-5-methylbutanolide] | 139 ± 2.8 | – | – |

| Compound | IC50 ([2]; Mus musculus, RAW264.7) [µM] | IC50 at 24 h [1] [µM] | IC50 (RAW264.7 cells) [µM] | IC50 [2] [µM] |
| --- | --- | --- | --- | --- |
| C[C@@H]1O[C@@H](Oc2c(-c3ccc(O)cc3)oc3cc(O)cc(O)c3c2=O)[C@H](O)[C@H](O)[C@H]1OC(=O)/C=C/c1ccc(O)cc1 [Compound 13, 4″-p-coumaroylafzelin] | 76.9 ± 7.3 | > 86.5 | – | – |
| C[C@@H]1O[C@@H](Oc2c(-c3ccc(O)cc3)oc3cc(O)cc(O)c3c2=O)[C@H](O)[C@H](O)[C@H]1OC(=O)/C=C\c1ccc(O)cc1 [Compound 12, kaempferol 3-O-α-L-(4″-Z-p-coumaroyl) rhamnoside] | 67.9 ± 1.9 | > 86.5 | – | – |
